Results reported in US7994185B2, “Benzene sulfonamide thiazole and oxazole compounds” (Glaxo Smith Kline LLC, priority 2008, dated 2011).
Structures can show the parent of a compound that is named as a salt. Where two headings read alike, the source gives them in different places. Values belong to the molecule of their own block, whether it stands above or below them.

Key:
[1] = target: T1, BRAFV600E full-length (amino acids 2-766) (Homo sapiens, UniProt P15056, V600E); assay: B-Raf Accelerated MEK ATPase assay (BRAMA); type: biochemical; settings: categorized
T1 construct: His6-tagged BRAFV600E full-length (amino acids 2-766); His6; made in house; host or cells: baculovirus expression system (insect cells)
T1 sequence (P15056 2-766 V600E): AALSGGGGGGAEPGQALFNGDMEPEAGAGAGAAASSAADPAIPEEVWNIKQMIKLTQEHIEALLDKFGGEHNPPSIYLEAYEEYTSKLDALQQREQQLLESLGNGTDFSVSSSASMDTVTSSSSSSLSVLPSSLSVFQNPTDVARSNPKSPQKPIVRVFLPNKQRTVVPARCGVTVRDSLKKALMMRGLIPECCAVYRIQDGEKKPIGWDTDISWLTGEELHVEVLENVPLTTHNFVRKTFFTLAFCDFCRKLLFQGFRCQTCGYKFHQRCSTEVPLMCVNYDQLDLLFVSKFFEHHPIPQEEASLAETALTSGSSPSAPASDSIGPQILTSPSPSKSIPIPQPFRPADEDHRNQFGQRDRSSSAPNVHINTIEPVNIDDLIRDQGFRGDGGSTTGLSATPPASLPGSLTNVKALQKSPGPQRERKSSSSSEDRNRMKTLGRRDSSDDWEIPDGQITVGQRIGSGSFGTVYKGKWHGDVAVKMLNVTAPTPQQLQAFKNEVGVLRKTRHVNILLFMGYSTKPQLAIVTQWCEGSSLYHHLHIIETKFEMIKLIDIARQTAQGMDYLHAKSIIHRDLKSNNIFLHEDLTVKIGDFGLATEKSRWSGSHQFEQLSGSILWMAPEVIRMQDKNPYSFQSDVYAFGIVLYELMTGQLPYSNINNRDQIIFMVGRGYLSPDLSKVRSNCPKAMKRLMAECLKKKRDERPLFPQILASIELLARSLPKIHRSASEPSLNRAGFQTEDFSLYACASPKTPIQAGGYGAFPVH
How it was run: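 Coupled-enzyme readout: ADP generated by MEK-mediated ATP hydrolysis, uncoupled from ERK phosphorylation, is linked to NADH oxidation through pyruvate kinase and lactate dehydrogenase.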

[2] = tested on: Human colon tumor cells (Colo205); assay: Cell growth inhibition assay (CellTiter-Glo), Colo205; type: cell-based
How it was run: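 Colo205 (and SK-MEL-28) cells in RPMI with 10% FBS were exposed to 10-point 1:3 serial dilutions of compound at 0.2% final DMSO for 3 days at 37 °C. Total ATP, a surrogate for cell number, was read by CellTiter-Glo luminescence, with % growth inhibition relative to DMSO-treated wells.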

[3] = tested on: Human melanoma cancer cells (SK-MEL-28); assay: Cell growth inhibition assay (CellTiter-Glo), SK-MEL-28; type: cell-based
[4] = B-Raf Activity, Table 1a, highest pIC50 for the one or more runs
[5] = B-Raf pIC50, Table 1b, later runs, average pIC50 for the one or more runs
[6] = COLO 205, 72 h, Table 2a, 3 days incubation, read-out: Activity in Colo205 Tumor Cells
[7] = COLO 205, Table 2b, later runs, average for the one or more runs, categorized, read-out: IC50 for Colo205
[8] = SK-MEL-28, 72 h, Table 3a, 3 days incubation, read-out: Activity in SK-MEL-28 Tumor Cells
[9] = SK-MEL-28, Table 3b, later runs, average for the one or more runs, categorized, read-out: IC50 for SK-MEL-28
[10] = Table 1b, later runs, average pIC50 for the one or more runs, read-out: B-Raf pIC50 (converted)

SMILES: CC(C)(C)c1nc(-c2cccc(NS(=O)(=O)c3c(F)cccc3F)c2F)c(-c2ccnc(NC3CCS(=O)(=O)CC3)n2)s1 [Example 13, N-[3-(2-(1,1-Dimethylethyl)-5-{2-[(1,1-dioxidotetrahydro-2H-thiopyran-4-yl)amino]-4-pyrimidinyl}-1,3-thiazol-4-yl)-2-fluorophenyl]-2,6-difluorobenzenesulfonamide]
IC50 [1, 4]: < 100 nM
IC50 [1, 5]: ≤ 3.16 nM
IC50 [2, 6]: < 100 nM
IC50 [2, 7]: < 100 nM
IC50 [3, 8]: < 100 nM
IC50 [3, 9]: < 100 nM

SMILES: CC(C)(C)c1nc(-c2c(F)ccc(NS(=O)(=O)c3cccc(F)c3)c2F)c(-c2ccnc(N)n2)s1 [Example 157]
IC50 [1, 4]: < 100 nM
IC50 [1, 5]: ≤ 3.16 nM
IC50 [2, 6]: < 100 nM
IC50 [2, 7]: < 100 nM
IC50 [3, 8]: < 100 nM
IC50 [3, 9]: < 100 nM

SMILES: CC(=O)NCCNc1nccc(-c2sc(C(C)(C)C)nc2-c2cccc(NS(=O)(=O)c3cc(F)ccc3F)c2F)n1 [Example 197]
IC50 [1, 4]: < 100 nM
IC50 [1, 5]: ≤ 3.16 nM
IC50 [2, 6]: < 100 nM
IC50 [2, 7]: < 100 nM
IC50 [3, 8]: < 100 nM
IC50 [3, 9]: < 100 nM

SMILES: CC(C)c1nc(-c2ccc(F)c(NS(=O)(=O)c3c(F)cccc3F)c2)c(-c2ccnc(NCCN3CCOCC3)n2)s1 [Example 165]
IC50 [1, 5]: 31.6 to 1000 nM
IC50 [2, 6]: 100 to 1000 nM
IC50 [2, 7]: 100 to 1000 nM
IC50 [3, 8]: 100 to 1000 nM
IC50 [3, 9]: 100 to 1000 nM

SMILES: CC(C)(C)c1nc(-c2cccc(NS(=O)(=O)c3cc(F)ccc3F)c2Cl)c(-c2ccncn2)s1 [Example 228, N-{2-chloro-3-[2-(1,1-dimethylethyl)-5-(4-pyrimidinyl)-1,3-thiazol-4-yl]phenyl}-2,5-difluorobenzenesulfonamide]
IC50 [1, 5]: ≤ 3.16 nM
IC50 [2, 7]: < 100 nM
IC50 [3, 9]: < 100 nM

SMILES: CC(C)(C)c1nc(-c2ccc(F)c(NS(=O)(=O)c3c(F)cccc3F)c2)c(-c2ccnc(N[C@H]3CC[C@H](NS(C)(=O)=O)CC3)n2)s1 [Example 16, N-(5-{2-(1,1-Dimethylethyl)-5-[2-({trans-4 [(methylsulfonyl)amino]cyclohexyl}amino)-4-pyrimidinyl]-1,3-thiazol-4-yl}-2-fluorophenyl)-2,6-difluorobenzenesulfonamide]
IC50 [1, 4]: < 100 nM
IC50 [1, 10]: 3.16 to 31.6 nM
IC50 [2, 6]: < 100 nM
IC50 [2, 7]: < 100 nM
IC50 [3, 8]: < 100 nM
IC50 [3, 9]: < 100 nM

SMILES: CC(=O)NCCNc1nccc(-c2sc(C(C)C)nc2-c2ccc(F)c(NS(=O)(=O)c3cc(F)ccc3F)c2)n1 [Example 186]
IC50 [1, 4]: < 100 nM
IC50 [1, 10]: 3.16 to 31.6 nM
IC50 [2, 6]: 100 to 1000 nM
IC50 [2, 7]: 100 to 1000 nM
IC50 [3, 8]: 100 to 1000 nM
IC50 [3, 9]: 100 to 1000 nM

SMILES: CS(=O)(=O)N1CCC(Nc2nccc(-c3sc(C4CCC4)nc3-c3ccc(F)c(NS(=O)(=O)c4cc(F)ccc4F)c3)n2)CC1 [Example 80, N-{5-[2-Cyclobutyl-5-(2-{[1-(methylsulfonyl)-4-piperidinyl]amino}-4-pyrimidinyl)-1,3-thiazol-4-yl]-2-fluorophenyl}-2,5-difluorobenzenesulfonamide]
IC50 [1, 4]: < 100 nM
IC50 [1, 10]: 3.16 to 31.6 nM
IC50 [2, 6]: 100 to 1000 nM
IC50 [2, 7]: 100 to 1000 nM
IC50 [3, 8]: 100 to 1000 nM
IC50 [3, 9]: 100 to 1000 nM

IC50 [1, 10]: 3.16 to 31.6 nM
IC50 [2, 7]: < 100 nM
IC50 [3, 9]: < 100 nM
SMILES: Cc1nccc(-c2sc(C(C)(C)C)nc2-c2cccc(NS(=O)(=O)c3cc(F)ccc3F)c2Cl)n1 [Example 229, N-{2-chloro-3-[2-(1,1-dimethylethyl)-5-(2-methyl-4-pyrimidinyl)-1,3-thiazol-4-yl]phenyl}-2,5-difluorobenzenesulfonamide]

SMILES: CC(C)c1nc(-c2ccc(F)c(NS(=O)(=O)c3c(F)cccc3F)c2)c(-c2ccnc(NCCF)n2)s1 [Example 178]
IC50 [1, 4]: < 100 nM
IC50 [1, 5]: 31.6 to 1000 nM
IC50 [2, 6]: 100 to 1000 nM
IC50 [2, 7]: 100 to 1000 nM
IC50 [3, 8]: 100 to 1000 nM
IC50 [3, 9]: 100 to 1000 nM

SMILES: CC(C)c1nc(-c2ccc(F)c(NS(=O)(=O)c3c(F)cccc3F)c2)c(-c2ccnc(NCCO)n2)s1 [Example 160]
IC50 [1, 4]: 100 to 1000 nM
IC50 [1, 5]: 31.6 to 1000 nM
IC50 [2, 6]: 100 to 1000 nM
IC50 [2, 7]: 100 to 1000 nM
IC50 [3, 8]: 100 to 1000 nM
IC50 [3, 9]: 100 to 1000 nM

SMILES: CC(C)c1nc(-c2ccc(F)c(NS(=O)(=O)c3c(F)cccc3F)c2)c(-c2ccnc(NCCC(F)(F)F)n2)s1 [Example 180]
IC50 [1, 4]: < 100 nM
IC50 [1, 10]: 3.16 to 31.6 nM
IC50 [2, 6]: 100 to 1000 nM
IC50 [2, 7]: 100 to 1000 nM
IC50 [3, 8]: 100 to 1000 nM
IC50 [3, 9]: 100 to 1000 nM

SMILES: CC(C)c1nc(-c2ccc(F)c(NS(=O)(=O)c3cc(F)ccc3F)c2)c(-c2ccnc(NC3CC(C)(C)NC(C)(C)C3)n2)s1 [Example 74, 2,5-Difluoro-N-[2-fluoro-5-(2-(1-methylethyl)-5-{2-[(2,2,6,6-tetramethyl-4-piperidinyl)amino]-4-pyrimidinyl}-1,3-thiazol-4-yl)phenyl]benzenesulfonamide]
IC50 [1, 4]: < 100 nM
IC50 [1, 5]: ≤ 3.16 nM
IC50 [2, 6]: < 100 nM
IC50 [2, 7]: < 100 nM
IC50 [3, 8]: 100 to 1000 nM
IC50 [3, 9]: 100 to 1000 nM

SMILES: Nc1nccc(-c2sc(N3CCOCC3)nc2-c2cccc(NS(=O)(=O)c3ccco3)c2F)n1 [Example 62, N-{3-[5-(2-Amino-4-pyrimidinyl)-2-(4-morpholinyl)-1,3-thiazol-4-yl]-2-fluorophenyl}-2-furansulfonamide]
IC50 [1, 4]: < 100 nM
IC50 [1, 5]: ≤ 3.16 nM
IC50 [2, 6]: 100 to 1000 nM
IC50 [2, 7]: 100 to 1000 nM
IC50 [3, 8]: 100 to 1000 nM
IC50 [3, 9]: 100 to 1000 nM

SMILES: CC(C)c1nc(-c2ccc(F)c(NS(=O)(=O)c3ccc(F)cc3F)c2)c(-c2ccnc(NCCS(C)(=O)=O)n2)s1 [Example 29, 2,4-Difluoro-N-{2-fluoro-5-[2-(1-methylethyl)-5-(2-{[2-(methylsulfonyl)ethyl]amino}-4-pyrimidinyl)-1,3-thiazol-4-yl]phenyl}benzenesulfonamide]
IC50 [1, 4]: < 100 nM
IC50 [1, 10]: 3.16 to 31.6 nM
IC50 [2, 6]: 100 to 1000 nM
IC50 [2, 7]: 100 to 1000 nM
IC50 [3, 8]: 100 to 1000 nM
IC50 [3, 9]: 100 to 1000 nM

SMILES: CC(C)(CO)c1nc(-c2cccc(NS(=O)(=O)c3c(F)cccc3F)c2F)c(-c2ccnc(N)n2)s1 [Example 295, N-{3-[5-(2-amino-4-pyrimidinyl)-2-(2-hydroxy-1,1-dimethylethyl)-1,3-thiazol-4-yl]-2-fluorophenyl}-2,6-difluorobenzenesulfonamide]
IC50 [1, 5]: ≤ 3.16 nM
IC50 [2, 7]: < 100 nM
IC50 [3, 9]: < 100 nM

SMILES: COc1ccc(F)cc1S(=O)(=O)Nc1cccc(-c2nc(C(C)C)sc2-c2ccnc(NCCS(C)(=O)=O)n2)c1 [Example 149]
IC50 [1, 4]: < 100 nM
IC50 [1, 5]: 31.6 to 1000 nM
IC50 [2, 6]: 100 to 1000 nM
IC50 [2, 7]: 100 to 1000 nM
IC50 [3, 8]: 100 to 1000 nM
IC50 [3, 9]: 100 to 1000 nM

SMILES: CC(C)CNc1nccc(-c2sc(C(C)C)nc2-c2cccc(NS(=O)(=O)c3ccco3)c2F)n1 [Example 154]
IC50 [1, 4]: < 100 nM
IC50 [1, 5]: ≤ 3.16 nM
IC50 [2, 6]: 100 to 1000 nM
IC50 [2, 7]: 100 to 1000 nM
IC50 [3, 8]: 100 to 1000 nM
IC50 [3, 9]: 100 to 1000 nM

SMILES: CC(C)c1nc(-c2ccc(F)c(NS(=O)(=O)c3cc(F)ccc3F)c2)c(-c2ccnc(NCC3CCN(C(=O)OC(C)(C)C)CC3)n2)s1 [Example 127]
IC50 [1, 4]: < 100 nM
IC50 [1, 5]: 31.6 to 1000 nM
IC50 [2, 6]: > 1000 nM
IC50 [2, 7]: 1000 to 10000 nM
IC50 [3, 8]: > 1000 nM
IC50 [3, 9]: 1000 to 10000 nM

SMILES: Cn1cc(S(=O)(=O)Nc2cccc(-c3nc(C4CCOCC4)sc3-c3ccnc(N)n3)c2F)cn1 [Example 286, N-{3-[5-(2-amino-4-pyrimidinyl)-2-(tetrahydro-2H-pyran-4-yl)-1,3-thiazol-4-yl]-2-fluorophenyl}-1-methyl-1H-pyrazole-4-sulfonamide hydrochloride]
IC50 [1, 10]: 3.16 to 31.6 nM
IC50 [2, 7]: 100 to 1000 nM
IC50 [3, 9]: 100 to 1000 nM

SMILES: O=S(=O)(Nc1cccc(-c2nc(C3CCOCC3)sc2-c2ccncn2)c1Cl)c1cc(F)ccc1F [Example 243, N-{2-chloro-3-[5-(4-pyrimidinyl)-2-(tetrahydro-2H-pyran-4-yl)-1,3-thiazol-4-yl]phenyl}-2,5-difluorobenzenesulfonamide]
IC50 [1, 5]: ≤ 3.16 nM
IC50 [2, 7]: < 100 nM
IC50 [3, 9]: < 100 nM

SMILES: Cc1ccc(F)cc1S(=O)(=O)Nc1cccc(-c2nc(C(C)(C)C)sc2-c2ccnc(N)n2)c1F [Example 53, N-{3-[5-(2-Amino-4-pyrimidinyl)-2-(1,1-dimethylethyl)-1,3-thiazol-4-yl]-2-fluorophenyl}-5-fluoro-2-methylbenzenesulfonamide]
IC50 [1, 4]: < 100 nM
IC50 [1, 10]: 3.16 to 31.6 nM
IC50 [2, 6]: < 100 nM
IC50 [2, 7]: < 100 nM
IC50 [3, 8]: < 100 nM
IC50 [3, 9]: < 100 nM

SMILES: CC(C)(C)c1nc(-c2cccc(NS(=O)(=O)c3cc(F)ccc3F)c2F)c(-c2ccnc(CCN3CCS(=O)(=O)CC3)n2)s1 [Example 216]
IC50 [1, 4]: < 100 nM
IC50 [1, 10]: 3.16 to 31.6 nM
IC50 [2, 7]: < 100 nM
IC50 [3, 9]: < 100 nM

SMILES: CC(C)CNc1nccc(-c2oc(N3CCCC3)nc2-c2cccc(NS(=O)(=O)c3c(F)cccc3F)c2)n1 [Example 111, 2,6-Difluoro-N-{3-[5-{2-[(2-methylpropyl)amino]-4-pyrimidinyl}-2-(1-pyrrolidinyl)-1,3-oxazol-4-yl]phenyl}benzenesulfonamide]
IC50 [1, 4]: < 100 nM
IC50 [1, 5]: 31.6 to 1000 nM
IC50 [2, 7]: 1000 to 10000 nM
IC50 [3, 9]: 1000 to 10000 nM

SMILES: CC(C)c1nc(-c2ccc(F)c(NS(=O)(=O)c3cc(F)ccc3F)c2)c(-c2ccnc(NC3CC(C)(C)N(C)C(C)(C)C3)n2)s1 [Example 132]
IC50 [1, 4]: < 100 nM
IC50 [1, 5]: ≤ 3.16 nM
IC50 [2, 6]: 100 to 1000 nM
IC50 [2, 7]: 100 to 1000 nM
IC50 [3, 8]: 100 to 1000 nM
IC50 [3, 9]: 100 to 1000 nM
